From patent publication US11046649B2, “Compounds useful as inhibitors of indoleamine 2,3-dioxygenase and/or tryptophan dioxygenase” (Board of Regents, The University of Texas System, priority 2018, dated 2021)

Target: T1, IDO1 (Homo sapiens, UniProt P14902)
T1 construct: endogenous in cells; host or cells: HeLa cells (ATCC), IDO1 induced with 10 ng/mL IFNgamma
Assay: IDO1 cell-based assay
Conditions: HeLa cells, 10 ng/mL IFNgamma, 24 hours with test compound; N-Formyl Kynurenine and L-tryptophan quantified by RFMS

T1 sequence (P14902 whole entry): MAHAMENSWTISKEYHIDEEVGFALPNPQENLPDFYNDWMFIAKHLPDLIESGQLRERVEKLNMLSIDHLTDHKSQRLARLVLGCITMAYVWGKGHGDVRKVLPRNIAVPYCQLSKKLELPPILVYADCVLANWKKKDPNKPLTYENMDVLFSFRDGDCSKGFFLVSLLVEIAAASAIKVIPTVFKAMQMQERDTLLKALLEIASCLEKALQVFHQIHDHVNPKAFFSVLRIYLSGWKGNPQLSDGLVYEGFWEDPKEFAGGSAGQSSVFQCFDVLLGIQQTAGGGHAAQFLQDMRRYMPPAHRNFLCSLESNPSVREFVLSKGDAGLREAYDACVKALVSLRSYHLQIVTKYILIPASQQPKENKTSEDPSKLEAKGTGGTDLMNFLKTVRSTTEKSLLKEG

| SMILES | IC50 [nM] |
| --- | --- |
| CC(C(=O)Nc1cnn(C(F)F)c1)[C@H]1[C@@H]2C[C@@H](n3cnc4cc(F)c(F)cc43)C[C@@H]21 (stereo partly drawn) [Example 47, 2-((1R,3s,5S,6r)-3-(5,6-difluoro-1H-benzo[d]-imidazol-1-yl)bicyclo-[3.1.0]hexan-6-yl)-N-(1-(difluoromethyl)-1H-pyrazol-4-yl)propanamide] | 14 |
| CC(C(=O)Nc1cc(C2CC2)nn1C)[C@H]1[C@@H]2C[C@@H](n3cnc4cc(F)c(F)cc43)C[C@@H]21 (stereo partly drawn) [Example 48, N-(3-cyclopropyl-1-methyl-1H-pyrazol-5-yl)-2-((1R,3s,5S,6r)-3-(5,6-difluoro-1H-benzo[d]-imidazol-1-yl)bicyclo-[3.1.0]hexan-6-yl)-propanamide] | 589 |
| CC(C(=O)Nc1cnc2ccccn12)[C@H]1[C@@H]2C[C@@H](n3cnc4cc(F)c(F)cc43)C[C@@H]21 (stereo partly drawn) [Example 50, 2-((1R,3s,5S,6r)-3-(5,6-difluoro-1H-benzo[d]-imidazol-1-yl)bicyclo-[3.1.0]hexan-6-yl)-N-(imidazo[1,2-a]pyridin-3-yl)propanamide] | 495 |
| Cc1cc2ccc(NC(=O)C(C)[C@H]3[C@@H]4C[C@@H](n5cnc6cc(F)c(F)cc65)C[C@@H]43)cc2[nH]1 (stereo partly drawn) [Example 52, 2-((1R,3s,5S,6r)-3-(5,6-difluoro-1H-benzo[d]-imidazol-1-yl)bicyclo-[3.1.0]hexan-6-yl)-N-(2-methyl-1H-indol-6-yl)-propanamide] | 23.9 |
| Cc1cnc(NC(=O)C(C)[C@H]2[C@@H]3C[C@@H](n4cnc5cc(F)c(F)cc54)C[C@@H]32)cn1 (stereo partly drawn) [Example 53, 2-((1R,3s,5S,6r)-3-(5,6-difluoro-1H-benzo[d]-imidazol-1-yl)bicyclo-[3.1.0]hexan-6-yl)-N-(5-methylpyrazin-2-yl)-propanamide] | 10.5 |
| CC(C(=O)Nc1cc(C(F)(F)F)nn1C)[C@H]1[C@@H]2C[C@@H](n3cnc4cc(F)c(F)cc43)C[C@@H]21 (stereo partly drawn) [Example 55, 2-((1R,3s,5S,6r)-3-(5,6-difluoro-1H-benzo[d]-imidazol-1-yl)bicyclo-[3.1.0]hexan-6-yl)-N-(1-methyl-3-(trifluoromethyl)-1H-pyrazol-5-yl)-propanamide] | 275 |
| CC(C(=O)Nc1ccc(C2CC2)nc1)[C@H]1[C@@H]2C[C@@H](n3cnc4cc(F)c(F)cc43)C[C@@H]21 (stereo partly drawn) [Example 56, N-(6-cyclopropylpyridin-3-yl)-2-((1R,3s,5S,6r)-3-(5,6-difluoro-1H-benzo[d]-imidazol-1-yl)bicyclo-[3.1.0]hexan-6-yl)-propanamide] | 5.7 |
| CC(C(=O)Nc1cnc(Br)cn1)[C@H]1[C@@H]2C[C@@H](n3cnc4cc(F)c(F)cc43)C[C@@H]21 (stereo partly drawn) [Example 57, N-(5-bromopyrazin-2-yl)-2-((1R,3s,5S,6r)-3-(5,6-difluoro-1H-benzo[d]-imidazol-1-yl)bicyclo-[3.1.0]hexan-6-yl)-propanamide] | 2.4 |
| CC(C(=O)Nc1ccc(C(F)(F)F)cn1)[C@H]1[C@@H]2C[C@@H](Oc3ccnc4ccc(F)cc34)C[C@@H]21 (stereo partly drawn) [Example 59, 2-((1R,3s,5S,6r)-3-((6-fluoroquinolin-4-yl)oxy)-bicyclo[3.1.0]hexan-6-yl)-N-(5-(trifluoromethyl)-pyridin-2-yl)propanamide] | 3.7 |
| CC(C(=O)Nc1ccc(C(F)(F)F)nc1)[C@H]1[C@@H]2C[C@@H](Oc3ccnc4ccc(F)cc34)C[C@@H]21 (stereo partly drawn) [Example 60] | 4.7 |
| CC(C(=O)Nc1ccc(C2CC2)nc1)[C@H]1[C@@H]2C[C@@H](Oc3ccnc4ccc(F)cc34)C[C@@H]21 (stereo partly drawn) [Example 63, N-(6-cyclopropylpyridin-3-yl)-2-((1R,3s,5S,6r)-3-((6-fluoroquinolin-4-yl)oxy)-bicyclo[3.1.0]hexan-6-yl)propanamide] | 1.4 |
| C[C@H](C(=O)Nc1ccc(-c2cnn(C)c2)cc1)[C@H]1[C@@H]2C[C@@H](n3cnc4cc(F)c(F)cc43)C[C@@H]21 [Example 65, (S)-2-((1R,3R,5S,6r)-3-(5,6-difluoro-1H-benzo[d]-imidazol-1-yl)-bicyclo[3.1.0]hexan-6-yl)-N-(4-(1-methyl-1H-pyrazol-4-yl)phenyl)-propanamide] | 170 |

The next lines start with the values.

| IC50 [nM] | SMILES |
| --- | --- |
| 1140 | Cc1ncc(-c2ccc(NC(=O)[C@@H](C)[C@H]3[C@@H]4C[C@@H](n5cnc6cc(F)c(F)cc65)C[C@@H]43)cc2)cn1 [Example 66, (S)-2-((1R,3R,5S,6r)-3-(5,6-difluoro-1H-benzo[d]-imidazol-1-yl)bicyclo-[3.1.0]hexan-6-yl)-N-(4-(2-methylpyrimidin-5-yl)-phenyl)propanamide] |
| 261 | Cc1ccc(-c2ccc(NC(=O)[C@@H](C)[C@H]3[C@@H]4C[C@@H](n5cnc6cc(F)c(F)cc65)C[C@@H]43)cc2)cn1 [Example 67, (S)-2-((1R,3R,5S,6r)-3-(5,6-difluoro-1H-benzo[d]-imidazol-1-yl)-bicyclo[3.1.0]hexan-6-yl)-N-(4-(6-methylpyridin-3-yl)phenyl)propanamide] |
| 5550 | C[C@H](C(=O)Nc1ccc(-c2cnn(CC(=O)O)c2)cc1)[C@H]1[C@@H]2C[C@@H](n3cnc4cc(F)c(F)cc43)C[C@@H]21 [Example 69, 2-(4-(4-((S)-2-((1R,3R,5S,6r)-3-(5,6-difluoro-1H-benzo[d]-imidazol-1-yl)bicyclo-[3.1.0]hexan-6-yl)-propanamido)phenyl)-1H-pyrazol-1-yl)acetic acid] |
| 238 | Cc1nnc(-c2ccc(NC(=O)[C@@H](C)[C@H]3[C@@H]4C[C@@H](n5cnc6cc(F)c(F)cc65)C[C@@H]43)cc2)s1 [Example 70, (S)-2-((1R,3R,5S,6r)-3-(5,6-difluoro-1H-benzo[d]-imidazol-1-yl)bicyclo-[3.1.0]hexan-6-yl)-N-(4-(5-methyl-1,3,4-thiadiazol-2-yl)phenyl)propanamide] |
| 156 | CC(C(=O)Nc1nnc(C(F)(F)F)[nH]1)[C@H]1[C@@H]2C[C@@H](Oc3ccnc4ccc(F)cc34)C[C@@H]21 (stereo partly drawn) [Example 74, 2-((1R,3s,5S,6r)-3-((6-fluoroquinolin-4-yl)oxy)-bicyclo[3.1.0]hexan-6-yl)-N-(5-(trifluoromethyl)-4H-1,2,4-triazol-3-yl)-propanamide] |
| 4.6 | CC(C(=O)Nc1ccc(C#N)nn1)[C@H]1[C@@H]2C[C@@H](Oc3ccnc4ccc(F)cc34)C[C@@H]21 (stereo partly drawn) [Example 76, N-(6-cyanopyridazin-3-yl)-2-((1R,3s,5S,6r)-3-((6-fluoroquinolin-4-yl)oxy)-bicyclo[3.1.0]hexan-6-yl)-propanamide] |
| 111 | CC(C(=O)Nc1nc[nH]n1)[C@H]1[C@@H]2C[C@@H](Oc3ccnc4ccc(F)cc34)C[C@@H]21 (stereo partly drawn) [Example 77, 2-((1R,3s,5S,6r)-3-((6-fluoroquinolin-4-yl)oxy)-bicyclo[3.1.0]hexan-6-yl)-N-(1H-1,2,4-triazol-3-yl)-propanamide] |
| 878 | C[C@H](C(=O)Nc1ccc(-c2ccc(C#N)nc2)cc1)[C@H]1[C@@H]2C[C@@H](n3cnc4cc(F)c(F)cc43)C[C@@H]21 [Example 79, (S)-N-(4-(6-cyanopyridin-3-yl)phenyl)-2-((1R,3R,5S,6r)-3-(5,6-difluoro-1H-benzo[d]-imidazol-1-yl)bicyclo-[3.1.0]hexan-6-yl)-propanamide] |
| 710 | Cc1nnc(-c2ccc(NC(=O)[C@@H](C)[C@H]3[C@@H]4C[C@@H](n5cnc6cc(F)c(F)cc65)C[C@@H]43)cc2)o1 [Example 81, (S)-2-((1R,3R,5S,6r)-3-(5,6-difluoro-1H-benzo[d]-imidazol-1-yl)-bicyclo[3.1.0]hexan-6-yl)-N-(4-(5-methyl-1,3,4-oxadiazol-2-yl)phenyl)-propanamide] |
| 845 | C[C@H](C(=O)Nc1ccc(-c2ccc(C#N)cn2)cc1)[C@H]1[C@@H]2C[C@@H](n3cnc4cc(F)c(F)cc43)C[C@@H]21 [Example 83, (S)-N-(4-(5-cyanopyridin-2-yl)phenyl)-2-((1R,3R,5S,6r)-3-(5,6-difluoro-1H-benzo[d]-imidazol-1-yl)bicyclo-[3.1.0]hexan-6-yl)-propanamide] |
| 1910 | C[C@H](C(=O)Nc1ccc(-c2ccc(F)cn2)cc1)[C@H]1[C@@H]2C[C@@H](n3cnc4cc(F)c(F)cc43)C[C@@H]21 [Example 85, (S)-2-((1R,3R,5S,6r)-3-(5,6-difluoro-1H-benzo[d]-imidazol-1-yl)bicyclo-[3.1.0]hexan-6-yl)-N-(4-(5-fluoropyridin-2-yl)phenyl)-propanamide] |
| 568 | C[C@H](C(=O)Nc1ccc(-c2ccc(C(F)(F)F)nc2)cc1)[C@H]1[C@@H]2C[C@@H](n3cnc4cc(F)c(F)cc43)C[C@@H]21 [Example 86, (S)-2-((1R,3R,5S,6r)-3-(5,6-difluoro-1H-benzo[d]-imidazol-1-yl)bicyclo-[3.1.0]hexan-6-yl)-N-(4-(6-(trifluoromethyl)pyridin-3-yl)phenyl)propanamide] |
| 3 | CC(C(=O)Nc1cc2ccccn2n1)[C@H]1[C@@H]2C[C@@H](Oc3ccnc4ccc(F)cc34)C[C@@H]21 (stereo partly drawn) [Example 87, 2-((1R,3s,5S,6r)-3-((6-fluoroquinolin-4-yl)oxy)-bicyclo[3.1.0]hexan-6-yl)-N-(pyrazolo[1,5-a]pyridin-2-yl)propanamide] |
| 550 | C[C@H](C(=O)Nc1ccc(-c2cnc[nH]2)cc1)[C@H]1[C@@H]2C[C@@H](n3cnc4cc(F)c(F)cc43)C[C@@H]21 [Example 90, (S)-N-(4-(1H-imidazol-5-yl)phenyl)-2-((1R,3R,5S,6r)-3-(5,6-difluoro-1H-bcnzo[d]-imidazol-1-yl)bicyclo-[3.1.0]hexan-6-yl)-propanamide] |
| 504 | CC(C)n1cc(-c2ccc(NC(=O)[C@@H](C)[C@H]3[C@@H]4C[C@@H](n5cnc6cc(F)c(F)cc65)C[C@@H]43)cc2)cn1 [Example 91, (S)-2-((1R,3R,5S,6r)-3-(5,6-difluoro-1H-benzo[d]-imidazol-1-yl)bicyclo-[3.1.0]hexan-6-yl)-N-(4-(1-isopropyl-1H-pyrazol-4-yl)phenyl)propanamide] |
